What was measured:
MCF-7 cells = test: RT-qPCR of selected ERVs, interferons and ISGs in MCF-7 cells treated with GSK-LSD1 (compound screen); format: cell-based, human; conditions: GSK-LSD1 for 6 days, RT-qPCR normalized to GAPDH, relative to DMSO (FIG. 1A)
Experimental: FIG. 1A is a bar graph showing quantitative reverse transcription polymerase chain reaction (RT-qPCR) analysis of selected endogenous retroviruses (ERVs) (HERV-E, HERV-F, HERV-K, HML-2, and ERVL), IFNs (IFN-α, IFN-β and IL-28) and ISGs (ISG15 and OASL) in human MCF-7 breast cancer cells treated with or without GSK-LSD1 for 6 days. The RT-qPCR data were normalized to GAPDH and then relative to DMSO. RT-qPCR was performed in duplicates and repeated two to three times. Error bars represent the standard error of mean (SEM). *p<0.05, **p<0.01, ***p<0.001, ns, not significant, as determined by unpaired t-test.
MCF-7, T47D, B16, LLC and D4m cells were cultured in normal DMEM supplemented with 10% FBS and 1% penicillin/streptomycin in 5% CO2 incubator at 37° C. All cell lines were cultured in 5% CO2 incubator at 37° C., and passaged every 2-3 days. […]
All reagents, buffers and containers used for RNA work were RNase-free grade or treated with 0.1% v/v DEPC (Sigma-Aldrich cat #D5758) if applicable, to eliminate RNase contaminants in this section and other relevant sections. […] The obtained cDNA samples were diluted and used for real-time quantitative PCR (RT-qPCR). […]
Of note, the PCR primers detected overall transcript levels of the corresponding ERV subfamilies, which may be transcribed from multiple genomic loc. […]

AGO2 = test: Mass spectrometry of lysine methylation on FH-AGO2 purified from MCF-7 cells; format: cell-based, human; conditions: overexpressed FH-AGO2 from MCF-7 cells, mass spectrometry (FIG. 5I)
Source text: FIG. 5I is a picture of immunoblots showing purified FH-AGO2 from MCF-7 cells treated by LSD1 KD or GSK-LSD1 as determined by mass spectrometry for the identification of lysine methylation. sh-Ctrl ([…]; SEQ ID NO: 156) and sh-LSD1, GSK-LSD1(VGK(me)[…]; SEQ ID NO: 157).
To investigate whether LSD1 regulates AGO2 stability by controlling AGO2 methylation, overexpressed FH-AGO2 from MCF-7 cells with or without LSD1 inhibition were purified and used for mass spectrometry analysis. […] To validate this finding, an antibody was raised that preferentially recognized AGO2 peptides mono-methylated at K726 (K726me1) compared with un-methylated or di-methylated peptides (FIG. 5J). Furthermore, this antibody detected increased K726me1 on ectopically expressed AGO2 when LSD1 was inhibited, which can be abrogated by substituting K726 with arginine (K726R) or alanine (K726A) (FIGS. 5K and 5L). […] To gain more insights into this regulation, an in vitro demethylation assay was performed using immunoprecipitated FH-LSD1, FH-LSD1-K661A (catalytically compromised LSD1), FH-AGO2 and FH-AGO2-K726R proteins purified from mammalian cells. FH-LSD1 but not FH-LSD1-K661A decreased K726me1 level on FH-AGO2, but had no observable effects on FH-AGO2-K726R (FIGS. 5N and 5O).

Q: For `Cl.Cl.c1ccc([C@@H]2C[C@H]2NC2CCNCC2)cc1` (relative stereo) [GSK-LSD1, rel-N-[(1R,2S)-2-Phenylcyclopropyl]-4-Piperidinamine hydrochloride (1:2)], which “up-regulation of selected ERVs, type I and type III interferons and interferon-stimulated genes (ISGs)” value (MCF-7 cells) is on record?
A: The value was “significantly induce the up-regulation”.

Q: And the “methylation of AGO2 lysine 726 (K726)” value (AGO2)?
A: The value was “consistently mono-methylated”.

— US11685782B2, “Methods of treating cancer using LSD1 inhibitors in combination with immunotherapy” (Children's Medical Center Corporation, priority 2017, dated 2023)
